Assay results reported in patent publication US8987195B2 (priority 2012, dated 2015).
Read-outs that look alike come from different tables or passages of the source.

What was measured:
HCV genotype 1b replicon = assay: HCV replicon assay, genotype 1b replicon EC50; type: cell-based, Hepatitis C virus; conditions: Hepatitis C virus, genotype 1b replicon, read-out: EC50 [gt-1b]
Summary of the method: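 Compound dilution series incubated 24-48 h, G418 absent, with HCV genotype 1b replicon cell lines kept under G418 selection beforehand. Luciferase signal or replicon RNA, by ^32P hybridization/protection or TaqMan normalized to cyclophilin A, was measured after washing and lysis. Four-parameter fitting against DMSO control gave EC50.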

[1] = biological target: HCV NS3/4A protease genotype 1b (Hepatitis C virus genotype 1b, UniProt P26663); assay: HCV NS3/4A protease time-resolved fluorescence (TRF) assay, Ki against genotype 1b; type: biochemical; conditions: IC50 [gt-1b] (nM), NS3/4A genotype 1b, enzyme 0.2 nM
Summary of the method: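 First, protease (genotype 1b 0.2 nM, A156T 0.4 nM, genotype 3a 0.025 nM) is preincubated 30 min with inhibitor. Next, 25 nM TRF substrate starts the reaction, run 2.5 h at room temperature. Finally, europium fluorescence is read and Ki calculated from IC50.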

Row | Compound | EC50 (HCV genotype 1b replicon) | IC50 [1] | EC50 (HCV genotype 1b replicon; K+ salt) | IC50 ([1]; K+ salt)
1 | CCc1nc2ccc(OC)cc2c2c1O[C@]1(CC2)C[C@H]2C(=O)N[C@]3(C(=O)NS(=O)(=O)C4(C)CC4)C[C@H]3/C=C\CCCCC[C@H](NC(=O)OC3CCCC3)C(=O)N2C1 [Example 336, cyclopentyl [(2R,6S,12Z,13aS,14aR,16aS)-5′-ethyl-9′-methoxy-14a-{[(1-methylcyclopropyl)sulfonyl]carbamoyl}-5,16-dioxo-1,1′,2′,5,6,7,8,9,10,11,13a,14,14a,15,16,16a-hexadecahydrospiro[cyclopropa[e]pyrrolo[1,2-a][1,4]diazacyclopentadecine-2,3′-pyrano[2,3-c]quinolin]-6-yl]carbamate] | 3.46 nM | 0.008 nM | – | –
2 | CCc1nc2ccc(OC)cc2c2c1O[C@]1(CC2)C[C@H]2C(=O)N[C@]3(C(=O)NS(=O)(=O)C4(C)CC4)C[C@H]3/C=C\CCCCC[C@H](NC(=O)OCC(C)C)C(=O)N2C1 [Example 337, 2-methylpropyl [(2R,6S,12Z,13aS,14aR,16aS)-5′-ethyl-9′-methoxy-14a-{[(1-methylcyclopropyl)sulfonyl]carbamoyl}-5,16-dioxo-1,1′,2′,5,6,7,8,9,10,11,13a,14,14a,15,16,16a-hexadecahydrospiro[cyclopropa[e]pyrrolo[1,2-a][1,4]diazacyclopentadecine-2,3′-pyrano[2,3-c]quinolin]-6-yl]carbamate] | 2.37 nM | 0.009 nM | – | –
3 | CCc1nc2ccc(OC)cc2c2c1O[C@]1(CC2)C[C@H]2C(=O)N[C@]3(C(=O)NS(=O)(=O)C4(C)CC4)C[C@H]3/C=C\CCCCC[C@H](NC(=O)OCC(C)(C)C)C(=O)N2C1 [Example 338, 2,2-dimethylpropyl [(2R,6S,12Z,13aS,14aR,16aS)-5′-ethyl-9′-methoxy-14a-{[(1-methylcyclopropyl)sulfonyl]carbamoyl}-5,16-dioxo-1,1′,2′,5,6,7,8,9,10,11,13a,14,14a,15,16,16a-hexadecahydrospiro[cyclopropa[e]pyrrolo[1,2-a][1,4]diazacyclopentadecine-2,3′-pyrano[2,3-c]quinolin]-6-yl]carbamate] | 1.53 nM | 0.009 nM | – | –
4 | Cc1nc2cc(F)ccc2c2c1O[C@]1(CC2)C[C@H]2C(=O)N[C@]3(C(=O)NS(=O)(=O)C4(C)CC4)C[C@H]3/C=C\CCCCC[C@H](NC(=O)OCC(C)(C)C)C(=O)N2C1 [Example 339, 2,2-dimethylpropyl [(2R,6S,12Z,13aS,14aR,16aS)-8′-fluoro-5′-methyl-14a-{[(1-methylcyclopropyl)sulfonyl]carbamoyl}-5,16-dioxo-1,1′,2′,5,6,7,8,9,10,11,13a,14,14a,15,16,16a-hexadecahydrospiro[cyclopropa[e]pyrrolo[1,2-a][1,4]diazacyclopentadecine-2,3′-pyrano[2,3-c]quinolin]-6-yl]carbamate] | 1.92 nM | 0.019 nM | – | –
5 | Cc1nc2cc(F)ccc2c2c1O[C@]1(CC2)C[C@H]2C(=O)N[C@]3(C(=O)NS(=O)(=O)C4(C)CC4)C[C@H]3/C=C\CCCCC[C@H](NC(=O)OCC(C)C)C(=O)N2C1 [Example 340, 2-methylpropyl [(2R,6S,12Z,13aS,14aR,16aS)-8′-fluoro-5′-methyl-14a-{[(1-methylcyclopropyl)sulfonyl]carbamoyl}-5,16-dioxo-1,1′,2′,5,6,7,8,9,10,11,13a,14,14a,15,16,16a-hexadecahydrospiro[cyclopropa[e]pyrrolo[1,2-a][1,4]diazacyclopentadecine-2,3′-pyrano[2,3-c]quinolin]-6-yl]carbamate] | 3.23 nM | 0.03 nM | – | –
6 | COc1cccc(N[C@H]2CCCCC/C=C\[C@@H]3C[C@@]3(C(=O)NS(=O)(=O)C3(C)CC3)NC(=O)[C@@H]3C[C@]4(CCc5c(c(C)nc6ccccc56)O4)CN3C2=O)c1 [Example 341, (2R,6S,12Z,13aS,14aR,16aS)-6-[(3-methoxyphenyl)amino]-5′-methyl-N-[(1-methylcyclopropyl)sulfonyl]-5,16-dioxo-1,1′,2′,6,7,8,9,10,11,13a,14,15,16,16a-tetradecahydrospiro[cyclopropa[e]pyrrolo[1,2-a][1,4]diazacyclopentadecine-2,3′-pyrano[2,3-c]quinoline]-14a(5R)-carboxamide] | 1.04 nM | 0.172 nM | – | –
7 | Cc1cccc(N[C@H]2CCCCC/C=C\[C@@H]3C[C@@]3(C(=O)NS(=O)(=O)C3(C)CC3)NC(=O)[C@@H]3C[C@]4(CCc5c(c(C)nc6ccccc56)O4)CN3C2=O)n1 [Example 343, (2R,6S,12Z,13aS,14aR,16aS)-5′-methyl-N-[(1-methylcyclopropyl)sulfonyl]-6-[(6-methylpyridin-2-yl)amino]-5,16-dioxo-1,1′,2′,6,7,8,9,10,11,13a,14,15,16,16a-tetradecahydrospiro[cyclopropa[e]pyrrolo[1,2-a][1,4]diazacyclopentadecine-2,3′-pyrano[2,3-c]quinoline]-14a(5H)-carboxamide] | 5.86 nM | 0.05 nM | – | –
8 | Cc1nc2ccccc2c2c1O[C@]1(CC2)C[C@H]2C(=O)N[C@]3(C(=O)NS(=O)(=O)C4(C)CC4)C[C@H]3/C=C\CCCCC[C@H](N)C(=O)N2C1 [Example 344, (2R,6S,12Z,13aS,14aR,16aS)-6-amino-5′-methyl-N-[(1-methylcyclopropyl)sulfonyl]-5,16-dioxo-1,1′,2′,6,7,8,9,10,11,13a,14,15,16,16a-tetradecahydrospiro[cyclopropa[e]pyrrolo[1,2-a][1,4]diazacyclopentadecine-2,3′-pyrano[2,3-c]quinoline]-14a(5H)-carboxamide] | 662 nM | 0.685 nM | – | –
9 | Cc1nc2ccccc2c2c1O[C@]1(CC2)C[C@H]2C(=O)N[C@]3(C(=O)NS(=O)(=O)C4(C)CC4)C[C@H]3/C=C\CCCCC[C@H](Nc3cccc(F)c3)C(=O)N2C1 [Example 345, (2R,6S,12Z,13aS,14aR,16aS)-6-[(3-fluorophenyl)amino]-5′-methyl-N-[(1-methylcyclopropyl)sulfonyl]-5,16-dioxo-1,1′,2′,6,7,8,9,10,11,13a,14,15,16,16a-tetradecahydrospiro[cyclopropa[e]pyrrolo[1,2-a][1,4]diazacyclopentadecine-2,3′-pyrano[2,3-c]quinoline]-14a(5H)-carboxamide] | 6.59 nM | 0.428 nM | – | –
10 | COc1ccc2nc(C(F)(F)F)c3c(c2c1)CC[C@]1(C[C@H]2C(=O)N[C@]4(C(=O)NS(=O)(=O)C5(C)CC5)C[C@H]4/C=C\CCCCC[C@H](NC(=O)OC(C)(C)C(F)(F)F)C(=O)N2C1)O3 [Example 348, 1,1,1-trifluoro-2-methylpropan-2-yl [(2R,6S,12Z,13aS,14aR,16aS)-9′-methoxy-14a-{[(1-methylcyclopropyl)sulfonyl]carbamoyl}-5,16-dioxo-5′-(trifluoromethyl)-1,1′,2′,5,6,7,8,9,10,11,13a,14,14a,15,16,16a-hexadecahydrospiro[cyclopropa[e]pyrrolo[1,2-a][1,4]diazacyclopentadecine-2,3′-pyrano[2,3-c]quinolin]-6-yl]carbamate] | – | – | 9.23 nM | 0.046 nM
